According to paper PMC12057046, “Elucidation of short linear motif-based interactions of the MIT and rhodanese domains of the ubiquitin-specific protease 8” (Biology Direct, 2025):

Tested on: USP8 MIT domain
Test: Peptide-phage display-based deep mutational scanning (DMS), USP8 MIT domain
Format: binding, human
Settings: bait USP8_MIT__P40818_1_142; EFCAB12 (Q6NXP0) 2-17; pair of mutant with wild-type wt_00016 (MDDDYEAYHSLFLSLL); sheet S3.B_ProP-PD_pairs
Protocol: The residues of these 16 amino acid-long wild-type peptides were substituted to all natural amino acid residues, except cysteine, in all positions (Supplementary Table S2A). The designed peptide sequences were reverse-translated to oligonucleotides optimized to the codon usage of E. coli. The required flanking regions (5´[…] and 3´[…]) were added for library construction. The library was generated as previously described.
Four rounds of phage selections were carried out using the second generation human disorderome library or the constructed deep mutational scanning library. At least three individual replicates were used for each bait protein. 10 µg of GST-tagged proteins or GST control (diluted in PBS from the stock of proteins kept in the purification elution buffer) were immobilized in 100 µL PBS on a 96-well MaxiSorp (Nunc) plate overnight at 4 °C. The plates were incubated with blocking buffer (with 0.5% BSA in PBS) for 1 h at 4 °C followed by washing with 0.05% Tween 20 in PBS four times. The naïve phage library (10^11 CFU) was diluted in 1/5th volume PEG/NaCl (20% PEG-8000, 0.4 M NaCl) and 1X PBS, incubated on ice for 10 min and centrifuged at 10,000 [drawing 3] g for 10 min. The pellet was resuspended in the volume of PBS (100 µL/ well). The GST-coated control plate was incubated with 100 µL library per well in PBS for 1 h at 4 °C to remove non-specific binders. The supernatant was transferred to the target wells and incubated for 2 h at 4 °C. The wells were washed five times with 0.05% Tween 20 in PBS and the bound phages were eluted with 100 µL per well log-phase E. coli OmniMAX by incubating at 37° C while shaking. After 30 min, M13KO7 helper phages were added and incubated for an additional 45 min. The bacterial cultures were transferred to 1 mL 2YT supplemented with 100 µg/mL carbenicillin, 30 µg/mL kanamycin and 0.3 mM IPTG and grew overnight at 37 °C while shaking. The following day the cultures were centrifuged for 10 min at 2,000 [drawing 4] g, 4 °C. 1/10th volume of 10 [drawing 5] PBS was added to adjust the pH and heated at 65 °C for 10 min. The phage pools from each round were used as in-phages for the next round of selections.
The samples were prepared for NGS as previously described. Peptide-coding regions of the enriched phage pools were amplified and barcoded using Phusion High-Fidelity PCR Master Mix (Thermo Fisher) for 22 cycles and confirmed by 2% agarose gel electrophoresis. The PCR products were normalized with 25 µL Mag-bind Total Pure NGS beads (Omega Biotek) and 10 µL of each eluted sample (Qiagen Elution Buffer) was pooled and cleaned-up with a PCR purification kit (Qiagen). The PCR product was confirmed by 2% agarose electrophoresis and the band was extracted with QIAquick Gel extraction Kit (Qiagen) and eluted with 30 µL TE buffer. The dsDNA was quantified using QuantiT PicoGreen dsDNA Assay Kit (Thermo Fisher) and sent for NGS (Illumina MiSeq v3, 1 × 150 bp read setup, 20% PhiX, NGI SciLifeLab facility, Sweden). The NGS data were demultiplexed, adapter regions were trimmed and sequences with an average quality of at least 20 were translated to peptide sequences. The NGS data were analysed using custom Python scripts. The total read NGS counts for each selection experiment of each peptide sequence were compiled and annotated in PepTools (https://slim.icr.ac.uk/tools/peptools/). Since ProP-PD is in essence a competition assay, the possibility of the input phage library influencing the selection outcome was explored. For this, the Pearson correlation coefficient, p-value and coefficient of determination were calculated for all peptide NGS count fractions in the library coverage vs. in the selections results (Supplementary Fig. S7; Supplementary Table S2B; Supplementary Table S3B; Supplementary Table S7B). Pearson correlation coefficient and p-value were calculated using Python’s SciPy library. […]

Sequence | hit_pair_ratio
MDDDYENYHSLFLSLL [mut_04438] | 2.33
MDDDYEVYHSLFLSLL [mut_04444] | 28.27
MDDDVEAYHSLFLSLL [mut_04409] | 337.92
MDDDYHAYHSLFLSLL [mut_04415] | 84.48
MDDDQEAYHSLFLSLL [mut_04405] | 14.11
MDDDYERYHSLFLSLL [mut_04441] | 84.82
MFDDYEAYHSLFLSLL [mut_04341] | 4.97
MDHDYEAYHSLFLSLL [mut_04361] | 6.06
MDVDYEAYHSLFLSLL [mut_04372] | 7.68
DDDDYEAYHSLFLSLL [mut_04322] | 1.56
MDDDYEKYHSLFLSLL [mut_04435] | 48.44
MLDDYEAYHSLFLSLL [mut_04346] | 33.93
MDDDYIAYHSLFLSLL [mut_04416] | 56.54
MDDDYEDYHSLFLSLL [mut_04429] | 4.40
MDDYYEAYHSLFLSLL [mut_04392] | 56.39
MDSDYEAYHSLFLSLL [mut_04370] | 42.24
MDDDIEAYHSLFLSLL [mut_04399] | 3.38
MDPDYEAYHSLFLSLL [mut_04367] | 337.92
MPDDYEAYHSLFLSLL [mut_04349] | 168.96
MDDDWEAYHSLFLSLL [mut_04410] | 56.54
YDDDYEAYHSLFLSLL [mut_04338] | 1.04
MDDDYEMYHSLFLSLL [mut_04437] | 59.15

Sequence | hit_pair_ratio
MDDDYMAYHSLFLSLL [mut_04419] | 112.64
MDDDKEAYHSLFLSLL [mut_04400] | 168.96
MQDDYEAYHSLFLSLL [mut_04350] | 169.63
MDDNYEAYHSLFLSLL [mut_04384] | 33.79
MDDWYEAYHSLFLSLL [mut_04391] | 51.65
MDDDYELYHSLFLSLL [mut_04436] | 7.38
MDYDYEAYHSLFLSLL [mut_04374] | 42.41
MDDDHEAYHSLFLSLL [mut_04398] | 169.63
MDDDYEIYHSLFLSLL [mut_04434] | 18.85
MYDDYEAYHSLFLSLL [mut_04356] | 67.58
MDGDYEAYHSLFLSLL [mut_04360] | 5.59
MDDDYDAYHSLFLSLL [mut_04412] | 12.14
HDDDYEAYHSLFLSLL [mut_04326] | 42.37
MDDDGEAYHSLFLSLL [mut_04397] | 12.55
WDDDYEAYHSLFLSLL [mut_04337] | 1.74
MKDDYEAYHSLFLSLL [mut_04345] | 25.99
MDDDYEEYHSLFLSLL [mut_04430] | 4.58
MDMDYEAYHSLFLSLL [mut_04365] | 84.82
EDDDYEAYHSLFLSLL [mut_04323] | 6.98
VDDDYEAYHSLFLSLL [mut_04336] | 42.24
SDDDYEAYHSLFLSLL [mut_04334] | 56.39
MHDDYEAYHSLFLSLL [mut_04343] | 337.92

Same assay, conditions: bait USP8_MIT__P40818_1_142; MLPH 482-497; ratio of averaged fractions of wild-type/mutant peptide pair, larger over smaller (direction to be read from the two fractions)

Sequence | hit_pair_ratio
SEVWDIESRIAALRAA | 1.49
SEVSDIESRIAALRAL | 1.15
SEVSDIEQRIAALRAA | 1.11
SEVSEIESRIAALRAA | 1.80
SEVEDIESRIAALRAA | 7.79
SEVSDIESRIAATRAA | 7.79
SEVSDIEGRIAALRAA | 2.60
SEVSDIESRIMALRAA | 6.39
SEWSDIESRIAALRAA | 1.11
SEVSDIESRISALRAA | 1.49
SEVSHIESRIAALRAA | 7.79
SEVSDIEERIAALRAA | 7.79
SEVSDIESRINALRAA | 7.79
SEVSDIESRIDALRAA | 7.79
SEVFDIESRIAALRAA | 1.56
SEVSDIESRIAALRAV | 1.51
SEVSDIESRIAALRNA | 7.79
SEVNDIESRIAALRAA | 7.79
SEVSYIESRIAALRAA | 7.79
SEVSDIESRIAALLAA | 9.42
SEVSDDESRIAALRAA | 7.79
SEVSDIESRIAVLRAA | 2.60
SEVSDIESRIAALRAY | 1.28
SEVSDVESRIAALRAA | 7.79
SEVGDIESRIAALRAA | 2.28
SEVKDIESRIAALRAA | 8.70
SEVSDIESRIAALRWA | 7.79
SEVSDIESREAALRAA | 3.89
SEVSDIESRKAALRAA | 7.79

Same assay, conditions: sheet S3.B_ProP-PD_pairs; bait USP8_MIT__P40818_1_142; ratio within the wild-type/mutant pair, larger over smaller averaged fraction (direction from fraction_wt and fraction_mut)

Sequence | hit_pair_ratio
MEVSDIESRIAALRAA | 2.60
MDDDYEAYHSLFGSLL | 337.92
MDDDYEAYHSLFLSRL | 337.92
SKVSDIESRIAALRAA | 3.89
MDDDYEAYHDLFLSLL | 11.69
MDDDYEAYHSLFLMLL | 26.03
MDDDYEAYHRLFLSLL | 41.80
SDVSDIESRIAALRAA | 11.31
MDDDYEAYSSLFLSLL | 33.87
SNVSDIESRIAALRAA | 1.35
SEFSDIESRIAALRAA | 1.28
MDDDYEAYHQLFLSLL | 337.92
MDDDYEAYHTLFLSLL | 169.63
MDDDYEAYHSLYLSLL | 1.65
SETSDIESRIAALRAA | 1.00
MDDDYEAYLSLFLSLL | 22.58
MDDDYEAYHSLFLFLL | 5.36
MDDDYEAYHVLFLSLL | 37.55
MDDDYEAYHHLFLSLL | 11.27
MDDDYEAYHSLALSLL | 337.92
TEVSDIESRIAALRAA | 6.74

Sequence | hit_pair_ratio
MDDDYEAYHELFLSLL | 112.94
VEVSDIESRIAALRAA | 3.36
SMVSDIESRIAALRAA | 7.79
NEVSDIESRIAALRAA | 11.09
PEVSDIESRIAALRAA | 7.79
SEESDIESRIAALRAA | 7.79
MDDDYEAVHSLFLSLL | 48.27
SVVSDIESRIAALRAA | 2.60
MDDDYEAYHSLFLSGL | 337.92
MDDDYEAYHSMFLSLL | 168.96
MDDDYEAYHGLFLSLL | 10.26
MDDDYEAYHLLFLSLL | 17.79
MDDDYEAYHSRFLSLL | 172.84
MDDDYEAYWSLFLSLL | 28.16
SHVSDIESRIAALRAA | 1.51
SPVSDIESRIAALRAA | 1.56
MDDDYEAYHSLFLSPL | 33.79
MDDDYEAMHSLFLSLL | 337.92
MDDDYEAYHSLFLSLF | 169.63
YEVSDIESRIAALRAA | 4.18
MDDDYEAYHSLFLSQL | 337.92
